These results are taken from US9180164B2, “Compounds and methods of modulating angiogenesis” (THE CLEVELAND CLINIC FOUNDATION, priority 2011, dated 2015).

The test system of one test is neovascularization. Briefly: Matrigel plug assay, hemoglobin extracted from Matrigel. The format is in vivo, mice. The conditions noted are these: 50 mM peptide in Matrigel with VEGF (60 ng/mL), subcutaneous, 7 days.
In another test the test system is HUVECs. Briefly: Cell adhesion assay with inhibiting peptide. The format is cell-based, Human. Particulars: HUVECs on integrin ligand coated plates. The method, then: Cells were washed twice with sterile phosphate buffered saline (PBS) and re-suspended in serum-free DMEN. The cell suspensions were added to integrin ligand-coated wells and placed in a humidified incubator for 45 min. The wells were gently washed three times with DMEM and photographs were taken. The numbers of attached and spread cells per field were counted.
To examine endothelial cell adhesion to various ECM proteins following inhibition of expression of specific integrin subunits, HUVECs were plated on various integrin ligand coated plates and ability of EC to adhere to the distinct extracellular matrix components were tested after administration of a control peptide (YGRKKRRQRRR G DTANNPL FKEATSTFT-COOH) (SEQ ID NO: 43) or with equal amount of beta-3 integrin cytoplasmic domain inhibitory peptide (YGRKKRRQRRR G DTANNPLYpKEATSTFT-COOH) (SEQ ID NO: 44).

The subject of a further test is endothelial cells. Briefly: VEGF-induced endothelial cell migration with inhibiting peptide. The format is cell-based. Here is the method:
To examine the effect of the inhibiting peptide on endothelial cell migration, VEGF-induced migratory activity of endothelial cells was measured after administration of a control peptide (YGRKKRRQRRR G DTANNPL FKEATSTFT-COOH) (SEQ ID NO: 43) or with equal amount of beta-3 integrin cytoplasmic domain inhibitory peptide (YGRKKRRQRRR G DTANNPLYpKEATSTFT-COOH) (SEQ ID NO: 44) to the endothelial cells.

Procedure for neovascularization: Matrigel plug assays were performed in age- and sex-matched C57/B16 background mice. […] After 7 days, the animals were euthanized and dissected. Matrigel plugs were removed and digested using 5 mL Drabkin reagent and neovascularization was assessed using a hemoglobin assay as per the manufacturer's protocol (FIG. 16).
Angiogenic response was measured based on the amount of hemoglobin extracted from Matrigel.

On to YGRKKRRQRRR G DTANNPL Yp KEATSTFT-COOH, for which the “hemoglobin concentration lower in Matrigel plugs compared to control peptide” value with neovascularization is “at least 3.5 fold”. In addition, the “effect on cell adhesion compared to a control peptide” value in the test on HUVECs is “no effect on cell adhesion”. Further, in the test on endothelial cells, the “VEGF-induced endothelial cell migration compared to the control peptide” value is listed as “prevented endothelial cell migration” and the “capillary formation compared to the control peptide” value is “inhibited capillary formation”.
